Laboratory results taken from US20200131144A1, “AMINE OR (THIO)AMIDE CONTAINING LXR MODULATORS” (Phenex-FXR GmbH, priority 2017, published 2020).

How the values were obtained:
[1] = biological target: T1, LXRβ ligand-binding domain (LBD) (Homo sapiens, UniProt P55055, INS174Q); test: LXR Gal4 reporter transient transfection assay, mammalian two-hybrid, LBD-M2H Gal4β; format: cell-based; conditions: HEK293 cells; inverse agonist unless *
T1 construct: or LXR (amino acids 156-461); expressed in transfected cells; host or cells: HEK293
T1 sequence (P55055 with tags, fused parts or gaps INS174Q limits assumed): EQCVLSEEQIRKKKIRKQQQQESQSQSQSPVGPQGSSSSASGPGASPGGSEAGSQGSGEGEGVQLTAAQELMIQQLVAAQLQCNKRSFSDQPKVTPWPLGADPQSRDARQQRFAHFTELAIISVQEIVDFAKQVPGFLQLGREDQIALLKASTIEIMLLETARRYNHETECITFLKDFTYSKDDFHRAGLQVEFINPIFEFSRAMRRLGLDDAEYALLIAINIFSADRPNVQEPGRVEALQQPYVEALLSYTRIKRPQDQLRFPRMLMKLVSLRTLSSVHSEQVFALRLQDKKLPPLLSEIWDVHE
Procedure: (§1) The tested compounds were usually dissolved, tested and stored as 20 mM stock solutions in DMSO. Since sulfonyl acetic acid derivatives tend to decarboxylate under these conditions, these stock solutions were prepared, tested and stored as 20 mM DMSO stock solutions containing 100 mM trifluoroacetic acid (5 equivalents). Sulfonyl acetic acid derivatives are shelf stable as solid at rt for long time as reported by Griesbrecht et al. (Synlett 2010:374) or Faucher et al. (J. Med. Chem. 2004; 47:18).
(§2) LXR Gal4 Reporter Transient Transfection Assays
(§3) LXRα and LXRβ activity status was determined via detection of interaction with coactivator and corepressor proteins in mammalian two-hybrid experiments (M2H). For this, via transient transfection the full length (FL) proteins of LXRα (amino acids 1-447; NP005684; SEQ ID NO:1) or LXRβ-(amino acids 1-461; NP009052; SEQ ID NO:2) or the ligand-binding domains (LBD) of LXRα (amino acids 155-447 SEQ ID NO:3) or LXR (amino acids 156-461; SEQ ID NO:4) were expressed from pCMV-AD (Stratagene) as fusions to the transcriptional activation domain of NFkB. As cofactors, domains of either the steroid receptor coactivator 1 (SRC1; amino acids 552-887; SEQ ID NO:5) or of the corepressor NCoR (amino acids 1906-2312; NP006302; SEQ ID NO:6) were expressed as fusions to the DNA binding domain of the yeast transcription factor GAL4 (from pCMV-BD; Stratagene). Interaction was monitored via activation of a coexpressed Firefly Luciferase Reporter gene under control of a promoter containing repetitive GAL4 response elements (vector pFRLuc; Stratagene). Transfection efficiency was controlled via cotransfection of constitutively active pRL-CMV Renilla reniformis luciferase reporter (Promega). HEK293 cells were grown in minimum essential medium (MEM) with 2 mM L-glutamine and Earle's balanced salt solution supplemented with 8.3% fetal bovine serum, 0.1 mM non-essential amino acids, 1 mM sodium pyruvate, at 37° C. in 5% CO2. 3.5×10^4 cells/well were plated in 96-well cell culture plates in growth medium supplemented with 8.3% fetal bovine serum for 16-20 h to—90% confluency. For transfection, medium was taken off and LXR and cofactor expressing plasmids as well as the reporter plasmids are added in 30 μL OPTIMEM/well including polyethylene-imine (PEI) as vehicle. Typical amounts of plasmids transfected/well: pCMV-AD-LXR (5 ng), pCMV-BD-cofactor (5 ng), pFR-Luc (100 ng), pRL-CMV (0.5 ng). Compound stocks were prepared in DMSO, prediluted in MEM to a total volume of 120 μL, and added 4 h after addition of the transfection mixture (final vehicle concentration not exceeding 0.2%). Cells were incubated for additional 16 h, lysed for 10 min in 1×Passive Lysis Buffer (Promega) and Firefly and Renilla luciferase activities were measured sequentially in the same cell extract using buffers containing D-luciferine and coelenterazine, respectively. Measurements of luminescence were done in a BMG-luminometer.

[2] = biological target: T2, GST-LXRβ ligand-binding domain (Homo sapiens, UniProt P55055, INS174Q); test: TR-FRETβ activity assay (NCoA3 coactivator peptide recruitment); format: biochemical; conditions: 1 μM 24(S)-25-epoxycholesterol as prestimulating agonist; inverse agonist unless *
T2 construct: amino acids 156-461; NP009052; made in house; host or cells: E. coli
T2 sequence (P55055 with tags, fused parts or gaps INS174Q limits assumed): T1 sequence (P55055 with tags, fused parts or gaps INS174Q limits assumed)
Outline: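 Coactivator recruitment read as TR-FRET (ex 340, em 615 and 665 nm) after 1 h equilibration at 4° C, in triplicate. Mix held 76 nM GST-tagged LXRβ LBD (aa 156-461, E. coli), 400 nM biotin-NCoA3 peptide, Tb-cryptate anti-GST, streptavidin-XL665, 240 mM KCl buffer.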

[3] = biological target: T3, LXRα ligand-binding domain (LBD) (Homo sapiens, UniProt Q13133); test: LXR Gal4 reporter transient transfection assay, mammalian two-hybrid, LBD-M2H Gal4α; format: cell-based; conditions: HEK293 cells; inverse agonist unless *
T3 construct: expressed in transfected cells; host or cells: HEK293
T3 sequence (Q13133 155-447): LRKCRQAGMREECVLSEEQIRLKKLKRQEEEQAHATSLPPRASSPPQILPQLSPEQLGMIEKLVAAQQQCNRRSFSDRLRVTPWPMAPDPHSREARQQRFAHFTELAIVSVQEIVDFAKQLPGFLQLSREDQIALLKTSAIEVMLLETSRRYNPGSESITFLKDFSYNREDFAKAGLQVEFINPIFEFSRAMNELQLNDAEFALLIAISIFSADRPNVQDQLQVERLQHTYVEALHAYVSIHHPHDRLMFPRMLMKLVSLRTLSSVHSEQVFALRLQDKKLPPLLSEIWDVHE
Procedure: as §1, §2, §3

Structure (SMILES) | EC50 [1] [µM] | EC50 [2] [µM] | EC50 [3] [µM]
COC(=O)CS(=O)(=O)c1cc(-c2ccc(CN(Cc3ccc(C(F)(F)F)o3)Cc3c(C)cc(C)cc3C)cc2)cc(F)c1CO [Example 13] | < 0.1 | 0.1 to 1 | 1 to 10
Cc1cc(C)c(CN(Cc2ccc(C(F)(F)F)o2)Cc2ccc(-c3cccc(S(=O)(=O)CC(=O)O)c3)cc2Cl)c(C)c1 [15/3] | 0.1 to 1 | 1 to 10 | 1 to 10
Cc1nc2ccccc2nc1CN(Cc1ccc(-c2cccc(C(C)(C)C(=O)O)c2)cc1)Cc1ccc(C(F)(F)F)o1 [Example 25] | 0.1 to 1 | > 10 | –
Cc1ccc2ccccc2c1CN(Cc1ccc(C(F)(F)F)o1)Cc1cnc(-c2cccc(C(C)(C)C(=O)O)c2)s1 [22/2] | 0.1 to 1 | 1 to 10 | –
Cc1ccc2ccccc2c1CN(Cc1ccc(-c2ccnc(C(C)(C)C(=O)O)c2)cc1)Cc1ccc(C(F)(F)F)o1 [14/3] | < 0.1 | 0.1 to 1 | < 0.1
CC(C)(C(=O)O)c1cccc(-c2ccc(CN(Cc3ccc(C(F)(F)F)o3)Cc3cccc4c3OC(F)(F)O4)cc2)c1 [25/2] | < 0.1 | – | 0.1 to 1
